Assay results reported in patent US4515951A, “Preparation of 5,6,7,7a-tetrahydro-4H-thieno[3,2-c]pyridin-2-one compounds” (Sanofi, priority 1980, dated 1985).
Read-outs that look alike come from different tables or passages of the source.

Legend:
[1] = in vivo; settings: mouse, iv
From the text: This study was concerned with the acute, chronic, sub-chronic and delayed toxicities.

[2] = system: platelet aggregation by ADP; assay: inhibiting action on platelet aggregation by ADP (ADP TEST), plasma of orally treated rats; type: in vivo, Wistar rats; settings: Rattus norvegicus; for inhibition at 5 mg/kg / inhibition at 12.5 mg/kg / inhibition at 25 mg/kg / inhibition at 50 mg/kg / inhibition at 100 mg/kg: read-out: Percentage inhibition of platelet aggregation (ADP test); for minimal effective dose: oral, rats, stated for the aggregation tests (ADP and collagen), read-out: dose at which significant (or similar) platelet aggregation inhibiting activity manifests itself
Experimental: (§1) A sample of blood is taken from the jugular vein of Wistar rats, which have previously been treated with the compound to be tested. From this blood, which is citrate-treated and centrifuged, there is reconstituted a plasma containing 600,000±20,000 platelets per mm^3, which is employed in all the aggregation measurements.
(§2) 0.4 ml. of plasma is treated in a siliconised tube provided with a bar magnet which is also siliconised. The tube is introduced into an aggregometer connected to an apparatus with which variations in optical density can be recorded. When the light transmission has reached a stable value, 0.5 ml. of a solution containing […] of ADP (adenosine diphosphate)is introduced into the tube.
(§3) Platelet aggregation then causes an increase in light transmission, followed by a reduction in light transmission due to the subsequent disaggregation stage.
(§4) The maximum variation in optical density thus determined relative to that of a plasma free of platelets characterises the intensity of aggregation.
(§5) The measurements are carried out during the 2 hours which follow the taking of the blood sample, this sample being taken 3 hours after treatment with the derivative to be tested.
(§6) Groups of 20 rats were used. Each group received a single dose of the compound to be tested, administered orally, the same compound being administered at different doses ranging from 5 mg./kg. to 100 mg./kg.
(§7) The results obtained are given in the following Tables II and III, which show the percentage inhibition of platelet aggregation obtained relative to the control experiment, 3 hours after treatment with the compound to be tested.

[3] = system: platelet aggregation by collagen; assay: inhibiting action on platelet aggregation by collagen (COLLAGEN TEST), plasma of orally treated rats; type: in vivo, Wistar rats; settings: Rattus norvegicus, read-out: Percentage inhibition of platelet aggregation (collagen test)
Experimental: as §1, §2, §3, §4, §5
The ADP solution is replaced by a solution of collagen (extracted from cattle tendons).
as §6, §7

[4] = system: experimental thrombosis; assay: anti-thrombosis activity, experimental thrombosis caused by extracorporal circulation (Umetsu and Sonoi); type: in vivo, rats; settings: for Average weight of the thrombi: control (5% gum arabic) 30.41
Experimental: This activity was studied by the experimental thrombosis method caused by extracorporal circulation, described by Umetsu and Sonoi (Thrombos. Haemost., 39, […]).
The left jugular vein and the right external carotid are exposed in rats anaesthetised by an intraperitoneal injection of pentobarbital. A shunt is provided which consists of a central catheter and two lateral catheters. A natural white silk thread is introduced into the central part and the circulation is restarted for 20 minutes. After stopping the circulation by clamping, the thread is gently withdrawn and weighed immediately.
Treatment was carried out for 48 hours, 24 hours and 2 hours before the start of the blood circulation in shunt.
The test compounds were administered orally to different groups of animals in the form of a suspension in 10 ml. of 5% gum arabic/kg., the doses used being 12.5 mg./kg., 25 mg./kg., 50 mg./kg., 100 mg./kg. and 200 mg./kg.

[5] = system: platelet aggregation induced by ADP; assay: kinetic study of platelet aggregation induced by ADP (Born's nephelometric method, Bryston aggregometer), intraperitoneal; type: in vivo; settings: rats
Experimental: A further experiment was carried out, relating to the kinetic study of the compounds of the present invention.
The blood sample is taken 10 minutes and 60 minutes after this administration and is centrifuged to obtain a plasma enriched in platelets.
The platelet aggregation in the plasma, induced by ADP is measured in a Bryston aggregometer, using Born's nephelometric method.

[6] = 12.5 mg/kg oral, 48, 24 and 2 hours before
[7] = 25 mg/kg oral, 48, 24 and 2 hours before
[8] = 50 mg/kg oral, 48, 24 and 2 hours before
[9] = 100 mg/kg oral, 48, 24 and 2 hours before
[10] = 5 mg/kg oral, single dose, 3 hours after treatment, relative to control
[11] = 12.5 mg/kg oral, single dose, 3 hours after treatment, relative to control
[12] = 25 mg/kg oral, single dose, 3 hours after treatment, relative to control
[13] = 50 mg/kg oral, single dose, 3 hours after treatment, relative to control
[14] = 100 mg/kg oral, single dose, 3 hours after treatment, relative to control

| SMILES | LD50 at 24 h [1] [mg/kg] | inhibition at 5 mg/kg ([2]; po, 3 h) [%] | inhibition at 12.5 mg/kg ([2]; po, 3 h) [%] | inhibition at 25 mg/kg ([2]; po, 3 h) [%] | inhibition at 50 mg/kg ([2]; po, 3 h) [%] | inhibition at 100 mg/kg ([2]; po, 3 h) [%] | inhibition at 5 mg/kg ([3]; po, 3 h) [%] | inhibition at 12.5 mg/kg ([3]; po, 3 h) [%] | inhibition at 25 mg/kg ([3]; po, 3 h) [%] | inhibition at 50 mg/kg ([3]; po, 3 h) [%] | inhibition at 5 mg/kg [2, 10] [%] | inhibition at 12.5 mg/kg [2, 11] [%] | inhibition at 25 mg/kg [2, 12] [%] | inhibition at 50 mg/kg [2, 13] [%] | inhibition at 100 mg/kg [2, 14] [%] | inhibition at 5 mg/kg [3, 10] [%] | inhibition at 12.5 mg/kg [3, 11] [%] | inhibition at 25 mg/kg [3, 12] [%] | inhibition at 50 mg/kg [3, 13] [%] | inhibition at 100 mg/kg [3, 14] [%] | other results |
| --- | --- | --- | --- | --- | --- | --- | --- | --- | --- | --- | --- | --- | --- | --- | --- | --- | --- | --- | --- | --- | --- |
| O=C1C=C2CN(Cc3ccccc3)CCC2S1 (stereo not drawn) [Derivative 2, 5-Benzyl-5,6,7,7a-tetrahydro-4H-thieno[3,2-c]-pyridin-2-one] | 116 | 47.8 | 82.6 | 82.9 | 83.7 | 83.7 | 16.5 | 44.2 | 85.8 | 87 | – | – | – | – | – | – | – | – | – | – | inhibition at 100 mg/kg ([3]; po, 3 h): 87.8% |
| O=C1C=C2CN(Cc3ccc(Cl)cc3)CCC2S1 (stereo not drawn) [Derivative 3, 5-(p-Chlorobenzyl)-5,6,7,7a-tetrahydro-4H-thieno-[3,2-c]pyridin-2-one] | 125 | 48.1 | 82.4 | 83 | 83.5 | 83.6 | 17.4 | 44.9 | 86.5 | 87.2 | – | – | – | – | – | – | – | – | – | – | inhibition at 100 mg/kg ([3]; po, 3 h): 88.1%; Average weight of the thrombi [4, 6]: 26.72 mg; Average weight of the thrombi [4, 7]: 12.04 mg; Average weight of the thrombi [4, 8]: 5.96 mg; Average weight of the thrombi [4, 9]: 4.62 mg |
| Cc1ccccc1CN1CCC2SC(=O)C=C2C1 (stereo not drawn) [Derivative 4, 5-(o-Methylbenzyl)-5,6,7,7a-tetrahydro-4H-thieno-[3,2-c]pyridin-2-one] | 110 | 48 | 81.9 | 82.1 | 82.8 | 82.9 | 17.1 | 45.2 | 85.9 | 88.1 | – | – | – | – | – | – | – | – | – | – | inhibition at 100 mg/kg ([3]; po, 3 h): 88.2% |
| CC(c1ccccc1Cl)N1CCC2SC(=O)C=C2C1 (stereo not drawn) [Derivative 5, 5-[1-(2-Chlorophenyl)-ethyl]-5,6,7,7a-tetrahydro-4H-thieno[3,2-c]pyridin-2-one] | 286 | – | – | – | – | – | – | – | – | – | 48.4 | 82 | 82.4 | 83.2 | 83.5 | 17 | 44.8 | 86.1 | 87.8 | 88 | – |
| CCC(c1ccccc1Cl)N1CCC2SC(=O)C=C2C1 (stereo not drawn) [Derivative 6, 5-[1-(2-Chlorophenyl)-propyl]-5,6,7,7a-tetrahydro-4H-thieno[3,2-c]pyridin-2-one] | 121 | – | – | – | – | – | – | – | – | – | 48.7 | 83 | 83.4 | 83.9 | 83.9 | 16.8 | 44.4 | 85.7 | 89 | 89.2 | – |
| N#Cc1ccccc1CN1CCC2SC(=O)C=C2C1 (stereo not drawn) [Derivative 7, 5-(o-Cyanobenzyl)-5,6,7,7a-tetrahydro-4H-thieno[3,2-c]-pyridin-2-one] | 254 | – | – | – | – | – | – | – | – | – | 47.6 | 82.7 | 82.9 | 83.1 | 83.2 | 16.5 | 44.5 | 86.2 | 87.9 | 89.4 | – |
| O=C1C=C2CN(Cc3ccccc3[N+](=O)[O-])CCC2S1 (stereo not drawn) [Derivative 8, 5-(o-Nitrobenzyl)-5,6,7,7a-tetrahydro-4H-thieno[3,2-c]-pyridin-2-one] | 278 | – | – | – | – | – | – | – | – | – | 48 | 82.8 | 83.1 | 83.3 | 83.4 | 17 | 44.6 | 86.2 | 88.2 | 88.7 | – |
| O=C1C=C2CN(Cc3ccccc3Br)CCC2S1 (stereo not drawn) [Derivative 9, 5-(o-Bromobenzyl)-5,6,7,7a-tetrahydro-4H-thieno[3,2-c]-pyridin-2-one] | 118 | 48.4 | 83.1 | 83.4 | 83.7 | 84 | 17.2 | 44.9 | 86.4 | 87.6 | – | – | – | – | – | – | – | – | – | – | inhibition at 100 mg/kg ([3]; po, 3 h): 88.6% |
| Clc1ccccc1CN1CCc2sccc2C1 [Reference compound A, 5-(2-chlorobenzyl)-4,5,6,7-tetrahydrothieno[3,2-c]pyridine, reference compound] | – | – | – | – | – | – | – | – | – | – | 0 | 0 | 0 | 34.6 | 63.2 | 0 | 0 | 40.9 | 46.8 | 80.1 | minimal effective dose ([2]; 3 h): 100 mg/kg; percentage inhibition as a function of time (platelet aggregation, ADP) ([5]; 10 minutes after 100 mg/kg intraperitoneal in propylene glycol): 22%; percentage inhibition as a function of time (platelet aggregation, ADP) ([5]; 60 minutes after 100 mg/kg intraperitoneal in propylene glycol): 39%; Average weight of the thrombi [4, 6]: 30.45 mg; Average weight of the thrombi [4, 7]: 30.09 mg; Average weight of the thrombi [4, 8]: 28.86 mg; Average weight of the thrombi [4, 9]: 23.04 mg; Average weight of the thrombi ([4]; 200 mg/kg oral, 48, 24 and 2 hours before): 23.13 mg; anti-thrombosis action ([4]; even at high doses): no anti-thrombosis action whatsoever |
| N#Cc1ccccc1CN1CCc2sccc2C1 [Reference compound B, 5-(2-cyanobenzyl)-4,5,6,7-tetrahydrothieno[3,2-c]pyridine, reference compound] | 45 | – | – | – | – | – | – | – | – | – | 0 | 0 | 0 | 35.5 | 63.8 | 0 | 0 | 38.5 | 51.2 | 78.8 | minimal effective dose ([2]; 3 h): 100 mg/kg |
